Marks after values point to notes of the source that are not given here.
What was measured:
[1] = tested on: IL-8 production from NHEK cells; assay: IL-8 production from NHEK cells irradiated with ultraviolet B (Experiment 17); assay type: cell-based, human; details: for IL-8: NHEK cells, stimulation by ultraviolet rays; for production of IL-8 from NHEK cells induced by ultraviolet rays: UVB 40 mJ/cm^2, supernatant at six hours
Experimental: (§1) “CELLMATRIX TYPE IV”, a product name of collagen for tissue culture commercialized by Nitta Gelatin Inc., Osaka, Japan, which had been diluted with PBS(K-) by 10 times, was previously placed in “FALCON 35-3001”, a product name of 35 mm petri dish commercialized by Becton Dickinson and Company, NJ, USA, in an amount of 1 mL/plate, and then allowed to stand at ambient temperature for 10 min, followed by removing an excessive amount of CELLMATRIX, drying the petri dish in air, and washing it thrice with PBS(K-). […] The cells were cultured at 37° C. in a 5% v/v CO2 incubator. On the 2nd and 4th days after the cell inoculation, the medium was replaced with EpiLife medium free of EDGS (1 mL/plate). On the 5th day after the cell inoculation, the supernatant was removed, and the petri dish was washed twice by adding 1 mL/petri dish of Hanks' balanced salt solution (called “HBSS (−) buffer”, hereinafter). Further, 2 mL/petri dish of HBSS (−) buffer was added to the petri dish which was then placed in the position 15 cm apart from an ultraviolet ray light source and irradiated with 40 mJ/cm^2 of ultraviolet B radiation. […] As an ultraviolet ray light source, “NS-8F”, a light source for actual use commercialized by Sanwa Medical Co., Ltd., Okayama, Japan, equipped with an ultraviolet B radiation lamp was used, and the radiation dose was measured on “UVR-305/365D (II)”, an ultraviolet ray meter commercialized by Topcon Corporation, Tokyo, Japan. TNF-α was assayed by the same method as in Experiment 2. The remaining other cytokines were assayed with an IL-1α assay kit, commercialized by R & D Systems Inc., MN, USA, and an IL-8 assay kit commercialized by BioLegend, CA, USA.

[2] = tested on: IL-12 production from mouse intraperitoneal macrophages; assay: IC50 for IL-12 production from mouse macrophages, LPS + IFN-γ (Experiment 19); assay type: cell-based; details: for IC50: Mus musculus, Macrophage, 20 h, read-out: IC50 Concentration IL-12
Source text: (§2) After completion of the culture, the supernatant in each well was collected and assayed for cytokines and prostaglandin E2 (called “PGE2”, hereinafter) with ELISA.

[3] = tested on: picryl chloride-sensitized mice; assay: Picryl chloride-sensitized mice atopic dermatitis, skin score (Experiment 16); assay type: in vivo, NC/Nga mice; details: for Skin score, 21 days after the day of sensitizing with picryl chloride: gel on dorsal skin twice a day (ANO 14 mg/mL, AN or IN 13 mg/mL, prednisolone 6.7 mg/mL from 3rd induction week), day 21; for Skin score, 24 days after the day of sensitizing with picryl chloride / Skin score, 28 days after the day of sensitizing with picryl chloride / Skin score, 31 days after the day of sensitizing with picryl chloride / Skin score, 35 days after the day of sensitizing with picryl chloride / Skin score, 39 days after the day of sensitizing with picryl chloride / Skin score, 42 days after the day of sensitizing with picryl chloride / Skin score, 45 days after the day of sensitizing with picryl chloride: gel on dorsal skin twice a day (ANO 14 mg/mL, AN or IN 13 mg/mL, prednisolone 6.7 mg/mL); for Skin score, 24 days after the day of sensitizing with picryl chloride: day 24; for Skin score, 28 days after the day of sensitizing with picryl chloride: day 28; for Skin score, 31 days after the day of sensitizing with picryl chloride: day 31; for Skin score, 35 days after the day of sensitizing with picryl chloride: day 35; for Skin score, 39 days after the day of sensitizing with picryl chloride: day 39; for Skin score, 42 days after the day of sensitizing with picryl chloride: day 42; for Skin score, 45 days after the day of sensitizing with picryl chloride: day 45
Source text: (§3) The results are in Table 19 in parallel.

NHEK cells [4] = assay: Proliferation of NHEK cells irradiated with ultraviolet rays, fluorescent intensity (Experiment 17); assay type: cell-based, human; details: stimulation by ultraviolet rays
Experimental: as §1

[5] = tested on: PGE2 production from mouse intraperitoneal macrophages; assay: IC50 for PGE2 production from mouse macrophages, LPS + IFN-γ (Experiment 19); assay type: cell-based; details: for IC50: Mus musculus, Macrophage, 20 h, read-out: IC50 Concentration PGE2
Source text: as §2

[6] = tested on: mice with bacterial shock induced by LPS; assay: LPS bacterial shock mice, survival, ANO, adenosine or inosine i.v. (Experiment 9); assay type: in vivo, BALB/c mice; details: LPS 18 mg/kg i.p.
Experimental: An LPS specimen derived from E. coli (055:B5), commercialized by Sigma-Aldrich Corporation, St. Louis, Mo. USA, was dissolved in PBS and intraperitoneally administered to all the seven mice in the four groups at a dose of 18 mg/kg body weight. […] Seven mice in the remaining one group were intravenously administered with PBS as a control in a volume of 0.2 mL/head (Experiment group 1). For each group, the survival number of mice was confirmed up to 7 to 43 hours after administering LPS and the survival rate (%) of mice in each group was determined.

NHEK cells [7] = assay: Cytotoxicity (released LDH) of NHEK cells irradiated with ultraviolet B (Experiment 17); assay type: cell-based, human; details: for LDH Activity: NHEK cells, stimulation by ultraviolet rays
[8] = tested on: IL-6 production of spleen cells; assay: IL-6 production of spleen cells stimulated with anti-CD3 antibody, from gel-treated mice (Experiment 16); assay type: in vivo, NC/Nga mice; details: for production level of IL-6 of spleen cells stimulated with the anti-CD3 antibody: compared to mice applied with gel prepared by adding refined water (Experiment group 1); for Content of IL-6: supernatant of spleen cells stimulated with anti-CD3 antibody, picryl chloride-sensitized mice applied with gel
Experimental: On Friday of the 6th week of the induction (46th day after initiating the application), all the mice were sacrificed, followed by isolating their spleens and collecting spleen cells in usual manner. […] To each well 2 μg/mL of “Purified Mouse CD3ε Monoclonal Antibody”, a product name of an anti-CD3 antibody, commercialized by Cosmo Bio Co., Ltd., Tokyo, Japan, was added, and the cells were incubated at 37° C. for three days in a 5% v/v CO2 incubator, followed by assaying the levels of cytokines in each supernatant thereof.
as §3

[9] = tested on: TNF-α production from mouse intraperitoneal macrophages; assay: IC50 for TNF-α production from mouse macrophages, LPS + IFN-γ, nucleic acid derivatives (Experiment 19); assay type: cell-based; details: for IC50: Mus musculus, Macrophage, 20 h, read-out: IC50 Concentration TNF-α
Source text: as §2

[10] = mouse intraperitoneal macrophages stimulated with LPS and IFN-γ

SMILES | IL-8 ([1]; 1 μM) | IL-8 ([1]; 5 μM) | IL-8 ([1]; 10 μM) | production of IL-8 from NHEK cells induced by ultraviolet rays [1] | IC50 [2] | Skin score, 21 days after the day of sensitizing with picryl chloride [3] | Skin score, 24 days after the day of sensitizing with picryl chloride [3] | Skin score, 28 days after the day of sensitizing with picryl chloride [3] | Skin score, 31 days after the day of sensitizing with picryl chloride [3] | Skin score, 35 days after the day of sensitizing with picryl chloride [3] | Skin score, 39 days after the day of sensitizing with picryl chloride [3] | Skin score, 42 days after the day of sensitizing with picryl chloride [3] | Skin score, 45 days after the day of sensitizing with picryl chloride [3] | Proliferation (NHEK cells [4]; 1 μM) | Proliferation (NHEK cells [4]; 5 μM) | Proliferation (NHEK cells [4]; 10 μM) | IC50 [5] | LDH Activity (NHEK cells [7]; 1 μM) | LDH Activity (NHEK cells [7]; 5 μM) | LDH Activity (NHEK cells [7]; 10 μM) | other results
Nc1c2ncn([C@@H]3O[C@H](CO)[C@@H](O)[C@H]3O)c2nc[n+]1[O-] [ANO, adenosine N1-oxide] | 107 pg/mL | 89 pg/mL | 51 pg/mL | inhibited | 1.4 µM | 0.75 | 1.00 | 2.25 | 3.38 | 4.50 | 3.58* | 4.38* | 3.63* | 5540 Fluorescent intensity | 5607 Fluorescent intensity | 5682 Fluorescent intensity | 1.2 µM | 0.32 absorbance | 0.23 absorbance | 0.14 absorbance | inhibitory action on the production of IL-12 (in words) [2, 10]: showed an inhibitory action; recovery of skin wounds in the inflammation-induced part ([3]; picryl chloride-sensitized NC/Nga mice, gel application): cure/improvement of wounds induced by inflammation was observed; inhibitory action on the production of PGE2 (in words) [5, 10]: showed an inhibitory action; Survival rate (%) of mice, 7 Hours ([6]; 135 mg/kg i.v. simultaneously): 100%; Survival rate (%) of mice, 19 Hours ([6]; 135 mg/kg i.v. simultaneously): 80%; Survival rate (%) of mice, 26 Hours ([6]; 135 mg/kg i.v. simultaneously): 80%; Survival rate (%) of mice, 43 Hours ([6]; 135 mg/kg i.v. simultaneously): 80%; LDH released from NHEK cells by the stimulation of ultraviolet rays (NHEK cells [7]; UVB 40 mJ/cm^2, supernatant at four hours): inhibited LDH released; production level of IL-6 of spleen cells stimulated with the anti-CD3 antibody [8]: significantly lower; Content of IL-6 [8]: 129* ng/mL; IC50 [9]: 0.3 µM
OC[C@H]1O[C@@H](n2cnc3c(O)ncnc32)[C@H](O)[C@@H]1O [IN, inosine] | 166 pg/mL | 169 pg/mL | 140 pg/mL | did not influence | > 200 µM | 0.50 | 0.50 | 2.50 | 3.22 | 5.20 | 5.66 | 6.00 | 5.43 | 5643 Fluorescent intensity | 5611 Fluorescent intensity | 5633 Fluorescent intensity | > 200 µM | 0.34 absorbance | 0.34 absorbance | 0.32 absorbance | Survival rate (%) of mice, 7 Hours ([6]; 127 mg/kg i.v. simultaneously): 100%; Survival rate (%) of mice, 19 Hours ([6]; 127 mg/kg i.v. simultaneously): 60%; Survival rate (%) of mice, 26 Hours ([6]; 127 mg/kg i.v. simultaneously): 40%; Survival rate (%) of mice, 43 Hours ([6]; 127 mg/kg i.v. simultaneously): 20%; production level of IL-6 of spleen cells stimulated with the anti-CD3 antibody [8]: showed no difference; Content of IL-6 [8]: 150 ng/mL; IC50 [9]: > 200 µM
Nc1ncnc2c1ncn2[C@@H]1O[C@H](CO)[C@@H](O)[C@H]1O [AN, adenosine] | 177 pg/mL | 172 pg/mL | 175 pg/mL | did not influence | 14 µM | 0.50 | 0.50 | 2.75 | 3.55 | 5.56 | 5.78 | 6.22 | 5.50 | 5701 Fluorescent intensity | 5683 Fluorescent intensity | 5578 Fluorescent intensity | > 200 µM | 0.35 absorbance | 0.36 absorbance | 0.35 absorbance | Survival rate (%) of mice, 7 Hours ([6]; 127 mg/kg i.v. simultaneously): 100%; Survival rate (%) of mice, 19 Hours ([6]; 127 mg/kg i.v. simultaneously): 20%; Survival rate (%) of mice, 26 Hours ([6]; 127 mg/kg i.v. simultaneously): 0%; Survival rate (%) of mice, 43 Hours ([6]; 127 mg/kg i.v. simultaneously): 0%; production level of IL-6 of spleen cells stimulated with the anti-CD3 antibody [8]: showed no difference; Content of IL-6 [8]: 192 ng/mL; IC50 [9]: 17.4 µM; inhibitory action on the production of inflammatory cytokines (in words) [9, 10]: only a weak inhibitory action

— patent publication US9757408B2 (Hayashibara Co., Ltd., priority 2010, dated 2017)
